In the series the test system is CCRIS mutagenicity, Ames/micronucleus/aberration tests. As to the kind of experiment: CCRIS mutagenicity studies.
Setting [1] is: Test System: AMES SALMONELLA TYPHIMURIUM, Strain/Indicator: TA98, Metabolic Activation: NONE, Method: PREINCUBATION
[2] abbreviates: Test System: AMES SALMONELLA TYPHIMURIUM, Strain/Indicator: TA100, Metabolic Activation: NONE, Method: PREINCUBATION
Setting [3] is: Test System: AMES SALMONELLA TYPHIMURIUM, Strain/Indicator: TA1535, Metabolic Activation: NONE, Method: PREINCUBATION
The mark [4] stands for this setting: Test System: AMES SALMONELLA TYPHIMURIUM, Strain/Indicator: TA98, Metabolic Activation: RAT, LIVER, S-9, AROCLOR 1254, Method: STANDARD PLATE.

The structures appear in SMILES notation. The source made the active and inactive calls. No rule for the calls is given here.

As to `NC(=O)c1ccccc1O`, the mutagenic call reads like this: (Test System: AMES SALMONELLA TYPHIMURIUM, Strain/Indicator: TA97, Metabolic Activation: HAMSTER, LIVER, S-9, AROCLOR 1254 (10 OR 30%), Method: PREINCUBATION) “inactive; negative”; (Test System: AMES SALMONELLA TYPHIMURIUM, Strain/Indicator: TA97, Metabolic Activation: NONE, Method: PREINCUBATION) “inactive; negative”; (Test System: AMES SALMONELLA TYPHIMURIUM, Strain/Indicator: TA97, Metabolic Activation: RAT, LIVER, S-9, AROCLOR 1254 (10 OR 30%), Method: PREINCUBATION) “inactive; negative”; (Test System: AMES SALMONELLA TYPHIMURIUM, Strain/Indicator: TA98, Metabolic Activation: GUINEA PIG, LIVER, S-9, PCB, Method: PREINCUBATION) “inactive; negative”; (Test System: AMES SALMONELLA TYPHIMURIUM, Strain/Indicator: TA98, Metabolic Activation: HAMSTER, LIVER, S-9, AROCLOR 1254 (10 OR 30%), Method: PREINCUBATION) “inactive; negative”; (Test System: AMES SALMONELLA TYPHIMURIUM, Strain/Indicator: TA98, Metabolic Activation: HAMSTER, LIVER, S-9, PCB, Method: PREINCUBATION) “inactive; negative”. Further, the mutagenic call is, setting by setting: (Test System: AMES SALMONELLA TYPHIMURIUM, Strain/Indicator: TA98, Metabolic Activation: MOUSE, LIVER, S-9, PCB, Method: PREINCUBATION) “inactive; negative”; under setting [1], “inactive; negative”; (Test System: AMES SALMONELLA TYPHIMURIUM, Strain/Indicator: TA98, Metabolic Activation: RAT, LIVER, S-9, AROCLOR 1254 (10 OR 30%), Method: PREINCUBATION) “inactive; negative”; (Test System: AMES SALMONELLA TYPHIMURIUM, Strain/Indicator: TA98, Metabolic Activation: RAT, LIVER, S-9, PCB, Method: PREINCUBATION) “inactive; negative”; (Test System: AMES SALMONELLA TYPHIMURIUM, Strain/Indicator: TA100, Metabolic Activation: GUINEA PIG, LIVER, S-9, PCB, Method: PREINCUBATION) “inactive; negative”; (Test System: AMES SALMONELLA TYPHIMURIUM, Strain/Indicator: TA100, Metabolic Activation: HAMSTER, LIVER, S-9, AROCLOR 1254 (10 OR 30%), Method: PREINCUBATION) “inactive; negative”. Besides, the mutagenic call runs as follows: (Test System: AMES SALMONELLA TYPHIMURIUM, Strain/Indicator: TA100, Metabolic Activation: HAMSTER, LIVER, S-9, PCB, Method: PREINCUBATION) “inactive; negative”; (Test System: AMES SALMONELLA TYPHIMURIUM, Strain/Indicator: TA100, Metabolic Activation: MOUSE, LIVER, S-9, PCB, Method: PREINCUBATION) “inactive; negative”; under setting [2], “inactive; negative”; (Test System: AMES SALMONELLA TYPHIMURIUM, Strain/Indicator: TA100, Metabolic Activation: RAT, LIVER, S-9, AROCLOR 1254 (10 OR 30%), Method: PREINCUBATION) “inactive; negative”; (Test System: AMES SALMONELLA TYPHIMURIUM, Strain/Indicator: TA100, Metabolic Activation: RAT, LIVER, S-9, PCB, Method: PREINCUBATION) “inactive; negative”; (Test System: AMES SALMONELLA TYPHIMURIUM, Strain/Indicator: TA1535, Metabolic Activation: HAMSTER, LIVER, S-9, AROCLOR 1254 (10 OR 30%), Method: PREINCUBATION) “inactive; negative”. Moreover, the mutagenic call was “inactive; negative” under setting [3] and “inactive; negative” (Test System: AMES SALMONELLA TYPHIMURIUM, Strain/Indicator: TA1535, Metabolic Activation: RAT, LIVER, S-9, AROCLOR 1254 (10 OR 30%), Method: PREINCUBATION).
For the compound `CC(=O)Nc1ccc2c(c1OC(C)=O)Cc1ccccc1-2`, the mutagenic call under setting [4] is “inactive; negative”.
Regarding `ClC(Cl)=C(Cl)c1cccc(Cl)c1Cl`, the mutagenic call is, setting by setting: (Test System: AMES SALMONELLA TYPHIMURIUM, Strain/Indicator: TA98, Metabolic Activation: NONE, Method: STANDARD PLATE) “inactive; negative”; under setting [4], “inactive; negative”; (Test System: AMES SALMONELLA TYPHIMURIUM, Strain/Indicator: TA100, Metabolic Activation: NONE, Method: STANDARD PLATE) “inactive; negative”; (Test System: AMES SALMONELLA TYPHIMURIUM, Strain/Indicator: TA100, Metabolic Activation: RAT, LIVER, S-9, AROCLOR 1254, Method: STANDARD PLATE) “inactive; negative”.
Take `CCOC(=O)NO`: the mutagenic call (Test System: AMES SALMONELLA TYPHIMURIUM, Strain/Indicator: TA98, Metabolic Activation: RAT, LIVER, S-9, KC500 OR PHENOBARBITAL, Method: LIQUID SUSPENSION) is “active; positive” and the mutagenic call (Test System: E. COLI, Strain/Indicator: WP2 UVRA, Metabolic Activation: NONE, Method: FLUCTUATION TEST) is “active; positive”.
Consider `CCCCCCCC/C=C/CCCCCCCC(=O)OCCOCC(OCCO)C1OCC(OCCO)C1OCCO` (centres undefined), for which the mutagenic call runs as follows: (Test System: AMES SALMONELLA TYPHIMURIUM, Strain/Indicator: TA98, Metabolic Activation: HAMSTER, LIVER, S-9, AROCLOR 1254 (10%), Method: PREINCUBATION) “inactive; negative”; under setting [1], “inactive; negative”; (Test System: AMES SALMONELLA TYPHIMURIUM, Strain/Indicator: TA98, Metabolic Activation: RAT, LIVER, S-9, AROCLOR 1254 (10%), Method: PREINCUBATION) “inactive; negative”; (Test System: AMES SALMONELLA TYPHIMURIUM, Strain/Indicator: TA100, Metabolic Activation: HAMSTER, LIVER, S-9, AROCLOR 1254 (10%), Method: PREINCUBATION) “inactive; negative”; under setting [2], “inactive; negative”; (Test System: AMES SALMONELLA TYPHIMURIUM, Strain/Indicator: TA100, Metabolic Activation: RAT, LIVER, S-9, AROCLOR 1254 (10%), Method: PREINCUBATION) “inactive; negative”. Besides, the mutagenic call was “inactive; negative” (Test System: AMES SALMONELLA TYPHIMURIUM, Strain/Indicator: TA1535, Metabolic Activation: HAMSTER, LIVER, S-9, AROCLOR 1254 (10%), Method: PREINCUBATION); “inactive; negative” under setting [3]; “inactive; negative” (Test System: AMES SALMONELLA TYPHIMURIUM, Strain/Indicator: TA1535, Metabolic Activation: RAT, LIVER, S-9, AROCLOR 1254 (10%), Method: PREINCUBATION); “inactive; negative” (Test System: AMES SALMONELLA TYPHIMURIUM, Strain/Indicator: TA1537, Metabolic Activation: HAMSTER, LIVER, S-9, AROCLOR 1254 (10%), Method: PREINCUBATION); “inactive; negative” (Test System: AMES SALMONELLA TYPHIMURIUM, Strain/Indicator: TA1537, Metabolic Activation: NONE, Method: PREINCUBATION); “inactive; negative” (Test System: AMES SALMONELLA TYPHIMURIUM, Strain/Indicator: TA1537, Metabolic Activation: RAT, LIVER, S-9, AROCLOR 1254 (10%), Method: PREINCUBATION).

(Values after PubChem BioAssay AID1259407 (Chemical Carcinogenesis Research Information System (CCRIS), 2018).)
